Laboratory results taken from patent US20200291018A1, “TAM KINASE INHIBITORS” (SYROS PHARMACEUTICALS, INC., priority 2017, published 2020).

Experiments:
[1] = biological target: T1, FLT3 (Homo sapiens, UniProt P36888); assay: TR-FRET kinase activity assay, FLT3; type: biochemical; details: ATP at Km, 60 minutes
T1 sequence (P36888 27-993): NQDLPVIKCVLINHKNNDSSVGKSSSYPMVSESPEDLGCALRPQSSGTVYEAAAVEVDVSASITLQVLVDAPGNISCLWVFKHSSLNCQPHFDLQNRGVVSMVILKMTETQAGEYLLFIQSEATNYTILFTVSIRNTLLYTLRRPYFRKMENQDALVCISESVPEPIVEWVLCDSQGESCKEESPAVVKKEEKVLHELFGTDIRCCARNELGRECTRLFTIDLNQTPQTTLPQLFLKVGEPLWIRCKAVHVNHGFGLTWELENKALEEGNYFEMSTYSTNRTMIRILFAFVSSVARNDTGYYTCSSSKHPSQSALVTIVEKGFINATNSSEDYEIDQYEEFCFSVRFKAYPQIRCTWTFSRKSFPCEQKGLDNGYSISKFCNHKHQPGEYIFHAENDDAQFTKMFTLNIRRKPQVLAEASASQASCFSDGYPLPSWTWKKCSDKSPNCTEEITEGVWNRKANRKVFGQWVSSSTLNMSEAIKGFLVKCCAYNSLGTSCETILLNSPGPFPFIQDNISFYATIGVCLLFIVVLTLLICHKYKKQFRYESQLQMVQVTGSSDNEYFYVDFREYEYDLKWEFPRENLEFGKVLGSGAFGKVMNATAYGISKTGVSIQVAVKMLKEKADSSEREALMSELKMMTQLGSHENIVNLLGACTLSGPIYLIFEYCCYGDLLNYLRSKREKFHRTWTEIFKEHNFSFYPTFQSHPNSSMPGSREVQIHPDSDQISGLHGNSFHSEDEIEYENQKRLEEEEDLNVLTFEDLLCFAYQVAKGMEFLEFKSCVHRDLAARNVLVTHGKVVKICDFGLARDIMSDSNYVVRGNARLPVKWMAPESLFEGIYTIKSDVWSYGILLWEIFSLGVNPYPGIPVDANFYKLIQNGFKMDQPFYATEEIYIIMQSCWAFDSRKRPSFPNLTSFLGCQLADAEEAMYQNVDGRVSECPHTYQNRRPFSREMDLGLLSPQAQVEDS
Summary of the method: (§1)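 Buffer 50 mM HEPES pH 7.5/10 mM MgCl2/1 mM EGTA/0.01% Brij 35/1 mM DTT, RT. Km ATP per kinase, labeled peptide, 60 min; 12.5 mM EDTA stop; Eu-Ab 30 min dark; TR-FRET → IC50.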

[2] = biological target: T2, MERTK (Homo sapiens, UniProt Q12866); assay: TR-FRET kinase activity assay, MERTK; type: biochemical; details: for IC50: TR-FRET activity assay, ATP at Km, 60 minutes, read-out: Mer IC50; for Mer/Flt3 ratio (FLT3 IC50/Mer IC50): ratio calculated as FLT3 IC50/Mer IC50
T2 sequence (Q12866 21-999): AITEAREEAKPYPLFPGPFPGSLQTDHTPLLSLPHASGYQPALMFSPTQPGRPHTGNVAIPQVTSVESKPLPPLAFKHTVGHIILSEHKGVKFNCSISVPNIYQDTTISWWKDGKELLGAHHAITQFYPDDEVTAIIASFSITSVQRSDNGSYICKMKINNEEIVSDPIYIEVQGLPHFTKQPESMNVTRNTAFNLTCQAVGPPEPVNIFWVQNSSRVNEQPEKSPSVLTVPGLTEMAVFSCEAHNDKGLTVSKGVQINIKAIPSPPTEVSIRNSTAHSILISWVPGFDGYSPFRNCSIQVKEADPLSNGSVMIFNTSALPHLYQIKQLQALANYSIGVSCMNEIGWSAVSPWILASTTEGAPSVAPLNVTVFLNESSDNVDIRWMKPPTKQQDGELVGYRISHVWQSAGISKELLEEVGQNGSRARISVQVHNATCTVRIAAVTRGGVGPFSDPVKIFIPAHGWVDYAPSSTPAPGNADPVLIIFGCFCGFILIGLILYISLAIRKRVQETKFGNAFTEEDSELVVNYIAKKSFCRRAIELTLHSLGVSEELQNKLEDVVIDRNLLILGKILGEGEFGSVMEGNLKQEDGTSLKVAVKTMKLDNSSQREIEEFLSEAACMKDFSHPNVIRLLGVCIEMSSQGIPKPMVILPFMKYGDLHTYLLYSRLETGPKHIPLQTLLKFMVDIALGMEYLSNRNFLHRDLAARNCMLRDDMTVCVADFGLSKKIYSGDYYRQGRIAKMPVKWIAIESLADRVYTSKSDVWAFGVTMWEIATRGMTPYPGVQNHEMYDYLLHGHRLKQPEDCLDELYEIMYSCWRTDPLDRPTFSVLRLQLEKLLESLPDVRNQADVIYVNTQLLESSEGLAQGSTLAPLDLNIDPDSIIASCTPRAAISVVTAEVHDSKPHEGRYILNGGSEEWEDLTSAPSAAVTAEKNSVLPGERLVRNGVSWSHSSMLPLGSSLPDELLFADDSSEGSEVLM
Summary of the method: as §1

Row | SMILES | IC50 [1] [nM] | IC50 [2] [nM] | Mer/Flt3 ratio (FLT3 IC50/Mer IC50) [2]
1 | C[C@@H](CC(F)(F)F)Nc1ncc2c(OC3CCOCC3)ncc([C@H]3CC[C@H](O)CC3)c2n1 [Compound 305] | 100 to 1000 | ≤ 100 | +++ (a ratio of >100)
2 | CC[C@H](C)Nc1ncc2c(OC3CCN(c4ncccn4)CC3)ncc([C@H]3CC[C@H](O)CC3)c2n1 [Compound 306] | 1000 to 10000 | ≤ 100 | +++ (a ratio of >100)
3 | COC[C@H](C)Nc1ncc2c(O[C@@H]3CCNCC3(F)F)ncc([C@H]3CC[C@H](O)CC3)c2n1 [Compound 308] | 1000 to 10000 | ≤ 100 | +++ (a ratio of >100)
4 | COCCN1C(C)(C)CC(Oc2ncc([C@H]3CC[C@H](O)CC3)c3nc(N[C@@H](C)COC)ncc23)CC1(C)C [Compound 310] | 1000 to 10000 | ≤ 100 | +++ (a ratio of >100)
5 | C[C@@H](CCF)Nc1ncc2c(OC3CCOCC3)ncc([C@H]3CC[C@H](O)CC3)c2n1 [Compound 311] | 1000 to 10000 | ≤ 100 | +++ (a ratio of >100)
6 | COCC[C@H](C)Nc1ncc2c(OC3CCOCC3)ncc([C@H]3CC[C@H](O)CC3)c2n1 [Compound 312] | 1000 to 10000 | ≤ 100 | +++ (a ratio of >100)
7 | COC[C@H](C)Nc1ncc2c(OC3CCOCC3)ncc([C@H]3CC[C@H](NC(C)=O)CC3)c2n1 [Compound 315] | 1000 to 10000 | ≤ 100 | +++ (a ratio of >100)
8 | COC[C@H](C)Nc1ncc2c(OC3CCOCC3)ncc([C@H]3CC[C@H](NS(C)(=O)=O)CC3)c2n1 [Compound 316] | 1000 to 10000 | ≤ 100 | +++ (a ratio of >100)
9 | CNS(=O)(=O)N[C@H]1CC[C@H](c2cnc(OC3CCOCC3)c3cnc(N[C@@H](C)COC)nc32)CC1 [Compound 317] | > 10000 | ≤ 100 | +++ (a ratio of >100)
10 | CC[C@H](C)Nc1ncc2c(O[C@H]3CC[C@H](N)CC3)ncc([C@H]3CC[C@H](O)CC3)c2n1 [Compound 321] | 100 to 1000 | ≤ 100 | +++ (a ratio of >100)
11 | CN1C[C@H](Nc2ncc3c(OC4CCOCC4)ncc([C@H]4CC[C@H](O)CC4)c3n2)CC1=O [Compound 323] | 1000 to 10000 | ≤ 100 | +++ (a ratio of >100)
12 | CN1C[C@@H](Nc2ncc3c(OC4CCOCC4)ncc([C@H]4CC[C@H](O)CC4)c3n2)CC1=O [Compound 324] | 1000 to 10000 | 100 to 1000 | ++ (a ratio of between 10 and 100)
13 | COC[C@H](C)Nc1ncc2c(OC3CCOCC3)ncc([C@H]3CCCNC3)c2n1 [Compound 326] | ≤ 100 | 100 to 1000 | NS (a ratio of ≤2.0)
14 | COC[C@H](C)Nc1ncc2c(OC3CCOCC3)ncc([C@@H]3CCCNC3)c2n1 [Compound 327] | 1000 to 10000 | 100 to 1000 | ++ (a ratio of between 10 and 100)
15 | COC[C@H](C)Nc1ncc2c(OC3CCOCC3)ncc([C@H]3CC[C@@](O)(C(F)(F)F)CC3)c2n1 [Compound 329] | 1000 to 10000 | ≤ 100 | +++ (a ratio of >100)
16 | COC[C@H](C)Nc1ncc2c(OC3CCOCC3)ncc([C@H]3CC[C@](O)(C(F)(F)F)CC3)c2n1 [Compound 330] | 1000 to 10000 | 100 to 1000 | ++ (a ratio of between 10 and 100)
17 | N#Cc1ccc(Nc2ncc3c(OC4CCNCC4)ncc([C@H]4CC[C@H](O)CC4)c3n2)cc1 [Compound 331] | ≤ 100 | ≤ 100 | + (a ratio of >2.0 and <10)
18 | COC[C@H](C)Nc1ncc2c(OC3CCOCC3)ncc([C@H]3CCCN(C)C3)c2n1 [Compound 332] | 1000 to 10000 | 100 to 1000 | + (a ratio of >2.0 and <10)
19 | COC[C@H](C)Nc1ncc2c(OC3CCOCC3)ncc([C@@H]3CCCN(C)C3)c2n1 [Compound 333] | 1000 to 10000 | 1000 to 10000 | + (a ratio of >2.0 and <10)

Further lines, results first:

Row | IC50 [1] [nM] | IC50 [2] [nM] | Mer/Flt3 ratio (FLT3 IC50/Mer IC50) [2] | SMILES
20 | 1000 to 10000 | ≤ 100 | +++ (a ratio of >100) | COC[C@H](C)Nc1ncc2c(OC3CCOCC3)ncc(-c3cccc(S(=O)(=O)N(C)C)c3)c2n1 [Compound 307, (S)-3-(2-((1-methoxypropan-2-yl)amino)-5-((tetrahydro-2H-pyran-4-yl)oxy)pyrido[4,3-d]pyrimidin-8-yl)-N,N-dimethylbenzenesulfonamide]
21 | 1000 to 10000 | ≤ 100 | +++ (a ratio of >100) | COC[C@H](C)Nc1ncc2c(OC3CCOCC3)ncc(-c3ccc(N)cc3)c2n1 [Compound 309]
22 | 1000 to 10000 | ≤ 100 | +++ (a ratio of >100) | CC(C)Nc1ncc2c(OC3CCOCC3)ncc(-c3cccc(S(C)(=O)=O)c3)c2n1 [Compound 313]
23 | 1000 to 10000 | 100 to 1000 | ++ (a ratio of between 10 and 100) | COC[C@H](C)Nc1ncc2c(OC3CCOCC3)ncc(-c3cnn([C@@H]4CCN(C)C4)c3)c2n1 [Compound 314]
24 | 1000 to 10000 | ≤ 100 | +++ (a ratio of >100) | CC(C)Nc1ncc2c(OC3CCOCC3)ncc(-c3cccc(S(=O)(=O)C(C)C)c3)c2n1 [Compound 318]
25 | 1000 to 10000 | ≤ 100 | +++ (a ratio of >100) | COC[C@H](C)Nc1ncc2c(OC3CCOCC3)ncc(-c3ccc(CC#N)cc3)c2n1 [Compound 319]
26 | 1000 to 10000 | 100 to 1000 | ++ (a ratio of between 10 and 100) | COC[C@H](C)Nc1ncc2c(OC3CCOCC3)ncc(-c3cccc(C#N)c3)c2n1 [Compound 320]
27 | 100 to 1000 | ≤ 100 | +++ (a ratio of >100) | CN(C)S(=O)(=O)c1cccc(-c2cnc(OC3CCOCC3)c3cnc(NC4(C)CC4)nc23)c1 [Compound 322]
28 | 1000 to 10000 | 100 to 1000 | ++ (a ratio of between 10 and 100) | COC[C@H](C)Nc1ncc2c(OC3CCOCC3)ncc(-c3cccc(C(N)=O)c3)c2n1 [Compound 325]
29 | 1000 to 10000 | 100 to 1000 | ++ (a ratio of between 10 and 100) | COC[C@H](C)Nc1ncc2c(OC3CCOCC3)ncc(-c3cccc(S(N)(=O)=O)c3)c2n1 [Compound 328]
30 | 1000 to 10000 | ≤ 100 | ++ (a ratio of between 10 and 100) | COC[C@H](C)Nc1ncc2c(OC3CCOCC3)ncc(-c3cnn([C@H]4CCN(C)C4)c3)c2n1 [Compound 334]
